Where a name gives a salt, the structure may show the parent alone.

One assay deals with hNav1.7 (Homo sapiens (Human), UniProt Q15858). Description: Tritiated sulfonamide competitive binding to membranes from cells expressing hNav1.7 and the β1 subunit.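 Note: Filter-bound radioactivity counted by liquid scintillation, nonspecific binding defined with excess unlabelled ligand, IC50 fitted to percent inhibition of specific binding.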
hNav1.7, sequence (Q15858 other isoform, or with tags, fused parts or gaps): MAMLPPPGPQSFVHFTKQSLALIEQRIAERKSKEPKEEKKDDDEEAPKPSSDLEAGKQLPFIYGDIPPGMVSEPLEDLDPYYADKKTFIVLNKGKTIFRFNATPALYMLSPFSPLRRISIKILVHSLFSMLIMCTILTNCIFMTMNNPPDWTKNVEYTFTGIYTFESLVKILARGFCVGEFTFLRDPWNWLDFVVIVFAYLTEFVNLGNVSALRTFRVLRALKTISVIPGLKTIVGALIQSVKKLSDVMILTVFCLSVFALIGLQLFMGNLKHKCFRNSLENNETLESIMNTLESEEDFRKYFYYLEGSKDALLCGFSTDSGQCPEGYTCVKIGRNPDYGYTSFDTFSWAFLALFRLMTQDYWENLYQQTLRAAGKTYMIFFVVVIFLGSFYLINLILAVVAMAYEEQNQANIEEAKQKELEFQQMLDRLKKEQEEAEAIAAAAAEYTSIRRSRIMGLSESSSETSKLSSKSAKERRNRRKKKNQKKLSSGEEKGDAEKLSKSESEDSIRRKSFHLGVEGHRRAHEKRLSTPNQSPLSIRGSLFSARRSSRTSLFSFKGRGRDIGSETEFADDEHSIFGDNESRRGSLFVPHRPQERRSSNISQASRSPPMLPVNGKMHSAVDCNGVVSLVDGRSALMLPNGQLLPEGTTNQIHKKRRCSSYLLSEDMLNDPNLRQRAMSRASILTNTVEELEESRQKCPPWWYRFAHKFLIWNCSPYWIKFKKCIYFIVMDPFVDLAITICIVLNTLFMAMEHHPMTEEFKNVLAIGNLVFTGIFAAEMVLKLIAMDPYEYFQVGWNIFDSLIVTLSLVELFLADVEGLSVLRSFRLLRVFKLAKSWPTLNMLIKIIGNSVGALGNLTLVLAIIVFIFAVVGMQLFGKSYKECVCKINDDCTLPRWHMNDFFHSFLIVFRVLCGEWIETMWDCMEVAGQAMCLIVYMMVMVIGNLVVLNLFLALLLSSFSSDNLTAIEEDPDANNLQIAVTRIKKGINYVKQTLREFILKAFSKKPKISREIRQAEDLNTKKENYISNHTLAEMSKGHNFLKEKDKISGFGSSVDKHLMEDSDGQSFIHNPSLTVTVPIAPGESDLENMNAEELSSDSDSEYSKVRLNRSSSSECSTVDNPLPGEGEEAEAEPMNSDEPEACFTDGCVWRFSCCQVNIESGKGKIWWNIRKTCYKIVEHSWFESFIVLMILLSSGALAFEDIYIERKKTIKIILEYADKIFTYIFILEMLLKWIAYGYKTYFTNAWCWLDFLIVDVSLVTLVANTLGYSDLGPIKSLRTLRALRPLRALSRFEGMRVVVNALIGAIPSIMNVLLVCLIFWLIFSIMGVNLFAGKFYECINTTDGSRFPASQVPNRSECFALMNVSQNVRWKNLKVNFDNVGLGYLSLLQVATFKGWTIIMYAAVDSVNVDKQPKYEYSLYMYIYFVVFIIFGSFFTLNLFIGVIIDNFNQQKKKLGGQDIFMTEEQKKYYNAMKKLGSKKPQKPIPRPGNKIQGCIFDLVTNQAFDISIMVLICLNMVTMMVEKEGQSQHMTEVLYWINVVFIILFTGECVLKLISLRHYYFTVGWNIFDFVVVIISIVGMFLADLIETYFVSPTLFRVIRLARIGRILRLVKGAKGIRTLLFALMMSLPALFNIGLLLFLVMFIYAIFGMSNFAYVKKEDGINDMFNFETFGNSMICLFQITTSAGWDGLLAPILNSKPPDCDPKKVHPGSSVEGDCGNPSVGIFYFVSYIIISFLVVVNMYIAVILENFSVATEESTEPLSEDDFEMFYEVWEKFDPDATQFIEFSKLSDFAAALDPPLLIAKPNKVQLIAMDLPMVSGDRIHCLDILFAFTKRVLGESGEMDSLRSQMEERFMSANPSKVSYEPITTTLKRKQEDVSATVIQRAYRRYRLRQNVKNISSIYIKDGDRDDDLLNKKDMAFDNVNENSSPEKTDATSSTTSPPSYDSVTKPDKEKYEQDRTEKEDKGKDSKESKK
hNav1.7, sequence (Q07699 19-218 partner): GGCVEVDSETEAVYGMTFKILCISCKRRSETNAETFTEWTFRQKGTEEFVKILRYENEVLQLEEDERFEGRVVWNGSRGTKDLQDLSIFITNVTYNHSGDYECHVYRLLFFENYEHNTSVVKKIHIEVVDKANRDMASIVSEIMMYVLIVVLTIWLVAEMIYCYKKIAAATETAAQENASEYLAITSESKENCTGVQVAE
Conditions: not given
With `CS(=O)(=O)NC(=O)c1cc(C2CC2)c(CN2CCC(Oc3cc(Cl)cc(OC(F)(F)F)c3)CC2)cc1F` [Example 548, 4-((4-(3-chloro-5-(trifluoromethoxy)phenoxy)piperidin-1-yl)methyl)-5-cyclopropyl-2-fluoro-N-(methylsulfonyl)benzamide, trifluoroacetic acid salt], the IC50 worked out at 3.7 nM.
On the same count and under the same terms, the figure for `C[C@H](c1cc(Cl)cc(Cl)c1)N1CCC[C@@H](Oc2cc(F)c(C(=O)NS(C)(=O)=O)cc2C2CC2)C1` (single isomer, unassigned) [Example 51] is 2.1 nM.
As for `O=C(NS(=O)(=O)C1CC1)c1cc(C2CC2)c(O[C@@H]2CCCN(C(c3ccccc3)c3ccccc3)C2)cc1F` [Example 16, (R)-4-((1-benzhydrylpiperidin-3-yl)oxy)-5-cyclopropyl-N-(cyclopropylsulfonyl)-2-fluorobenzamide], the IC50 was found to be 3.4 nM.
Molecule `C[C@H](c1cc(Cl)cc(Cl)c1)N1CCN(Cc2cc(F)c(C(=O)NS(C)(=O)=O)cc2C2CC2)C[C@@H]1C` [Example 565, 5-cyclopropyl-4-(((S)-4-((R)-1-(3,5-dichlorophenyl)ethyl)-3-methylpiperazin-1-yl)methyl)-2-fluoro-N-(methylsulfonyl)benzamide] returned an IC50 of 4.1 nM.
Same read-out and setting: the same measure for `CS(=O)(=O)NC(=O)c1cc(C2CC2)c(OCC2CN([C@@H](c3ccccc3)c3ccc(C#N)cc3)C2)cc1F` [Example 110, (S)-4-((1-((4-Cyanophenyl)(phenyl)methyl)azetidin-3-yl)methoxy)-5-cyclopropyl-2-fluoro-N-(methylsulfonyl)benzamide]: 41.1 nM.
With `CC(C)(c1cccc(Cl)c1)N1CCC[C@@H](Oc2cc(F)c(C(=O)NS(C)(=O)=O)cc2C2CC2)C1` [Example 529, (R)-4-((1-(2-(3-chlorophenyl)propan-2-yl)piperidin-3-yl)oxy)-5-cyclopropyl-2-fluoro-N-(methylsulfonyl)benzamide, trifluoroacetic acid salt], the IC50 was 2.4 nM.
On the same count and under the same terms, the same measure for `CS(=O)(=O)NC(=O)c1cc(C2CC2)c(O[C@@H]2CCCN(Cc3ccc(F)cc3C(F)(F)F)C2)cc1F` [Example 34, (R)-5-cyclopropyl-2-fluoro-4-((1-(4-fluoro-2-(trifluoromethyl)benzyl)piperidin-3-yl)oxy)-N-(methylsulfonyl)benzamide]: 1.9 nM.

Staying with this assay, now noted: read-out: Ligand Binding Assay; 100 pM [3H]compound, membranes with hNav1.7 and β1 subunit, 18 h, room temperature.
For the molecule `COC[C@@H](c1ccc(F)c(Cl)c1)N1CCC(COc2cc(F)c(C(=O)NS(C)(=O)=O)cc2C2CC2)CC1` (single isomer, unassigned) [Example 181], the IC50 amounted to 11 nM.
In the case of `CS(=O)(=O)NC(=O)c1cc(C2CC2)c(OCC2CCN(Cc3cc(Cl)c(F)cc3F)CC2)cc1F` [Example 455, trifluoroacetic acid salt], the IC50 amounted to 8.5 nM.
For `COC(C)(C)[C@H](c1cc(Cl)cc(Cl)c1)N1CCC(COc2cc(F)c(C(=O)NS(C)(=O)=O)cc2C2CC2)CC1` (single isomer, unassigned) [Example 206], the IC50 came to 1.8 nM.
On to `COc1ccc(CN2CCC[C@@H](Oc3cc(F)c(C(=O)NS(C)(=O)=O)cc3C3CC3)C2)c(Cl)c1` [Example 432, (R)-4-((1-(2-chloro-4-methoxybenzyl)piperidin-3-yl)oxy)-5-cyclopropyl-2-fluoro-N-(methylsulfonyl)benzamide, trifluoroacetic acid salt], for which the IC50 came to 3.3 nM.
With `O=C(NS(=O)(=O)C1CC1)c1cc(Cl)c(OCC2CCN(Cc3cc(Cl)cc(OC(F)(F)F)c3)CC2)cc1F` [Example 407, 5-chloro-4-((1-(3-chloro-5-(trifluoromethoxy)benzyl)piperidin-4-yl)methoxy)-N-(cyclopropylsulfonyl)-2-fluorobenzamide, trifluoroacetic acid salt], the IC50 is 6.7 nM.
With `CCS(=O)(=O)NC(=O)c1cc(C2CC2)c(OCC2CCN(Cc3cc(Cl)cc(Cl)c3)CC2)cc1F` [Example 184, 5-Cyclopropyl-4-((1-(3,5-dichlorobenzyl)piperidin-4-yl)methoxy)-N-(ethylsulfonyl)-2-fluorobenzamide], the IC50 was 5.1 nM.
Consider `C[C@@H](c1cc(Cl)cc(Cl)c1)N1CCC(F)(COc2cc(F)c(C(=O)NS(=O)(=O)C3CC3)cc2C2CC2)CC1` [Example 350], for which the IC50 turned out to be 4.5 nM.
Same read-out and setting: the figure for `C[C@H]1[C@@H](Oc2cc(F)c(C(=O)NS(C)(=O)=O)cc2C2CC2)CCCN1Cc1cc(Cl)cc(Cl)c1` [Example 330, 5-cyclopropyl-4-(((2S,3S)-1-(3,5-dichlorobenzyl)-2-methylpiperidin-3-yl)oxy)-2-fluoro-N-(methylsulfonyl)benzamide, trifluoroacetic acid salt] is 31.9 nM.
Regarding `C[C@H](c1cc(Cl)cc(Cl)c1)N1CCC(F)(COc2cc(F)c(C(=O)NS(C)(=O)=O)cc2C2CC2)CC1` [Example 351, (R)-5-cyclopropyl-4-((1-(1-(3,5-dichlorophenyl)ethyl)-4-fluoropiperidin-4-yl)methoxy)-2-fluoro-N-(methylsulfonyl)benzamide, trifluoroacetic acid], the IC50 came to 5.3 nM.
Regarding `CC(c1cccc(Cl)c1)N1CCC(COc2cc(F)c(C(=O)NS(C)(=O)=O)cc2C2CC2)CC1` (stereo not shown) [Example 148, 4-((1-(1-(3-Chlorophenyl)ethyl)piperidin-4-yl)methoxy)-5-cyclopropyl-2-fluoro-N-(methylsulfonyl)benzamide], the IC50 amounted to 15 nM.
Same read-out and setting: the same measure for `CS(=O)(=O)NC(=O)c1cc(C2CC2)c(OCC2CN([C@H](c3ccccc3)c3cccc(C#N)c3)C2)cc1F` [Example 109, (R)-4-((1-((3-Cyanophenyl)(phenyl)methyl)azetidin-3-yl)methoxy)-5-cyclopropyl-2-fluoro-N-(methylsulfonyl)benzamide]: 53.6 nM; for `CS(=O)(=O)NC(=O)c1cc(C2CC2)c(CN2CCC(Oc3ccc(C(F)(F)F)cn3)CC2)cc1F` [Example 476, 5-cyclopropyl-2-fluoro-N-(methylsulfonyl)-4-((4-((5-trifluoromethyl)pyridin-2-yl)oxypiperidin-1-yl)methyl)benzamide, trifluoroacetic acid salt]: 37.2 nM.
Turning to `CS(=O)(=O)NC(=O)c1cc(C2CC2)c(OCC2CCN(S(=O)(=O)c3ccccc3C(F)(F)F)CC2)cc1F` [Example 370, 5-cyclopropyl-2-fluoro-N-(methylsulfonyl)-4-((1-((2-(trifluoromethyl)phenyl)sulfonyl)piperidin-4-yl)methoxy)benzamide], the IC50 was 30.8 nM.
As for `COC[C@@H](c1cc(Cl)cc(Cl)c1)N1CCC[C@@H](Oc2cc(F)c(C(=O)NS(C)(=O)=O)cc2C2CC2)C1` [Example 447, 5-cyclopropyl-4-(((R)-1-((R)-1-(3,5-dichlorophenyl)-2-methoxyethyl)piperidin-3-yl)oxy)-2-fluoro-N-(methylsulfonyl)benzamide], the IC50 stood at 6 nM.
On the same count and under the same terms, the same measure for `CC1(COc2cc(F)c(C(=O)NS(C)(=O)=O)cc2C2CC2)CN(C(c2ccccc2)c2cc(Cl)cc(Cl)c2)C1` (stereo not shown) [Example 420, 5-cyclopropyl-4-((1-((3,5-dichlorophenyl)(phenyl)methyl)-3-methylazetidin-3-yl)methoxy)-2-fluoro-N-(methylsulfonyl)benzamide, trifluoroacetic acid salt]: 2.4 nM.
Still for that read-out and setting: the figure for `CS(=O)(=O)NC(=O)c1cc(C2CC2)c(OCC2CCN(C(c3ccccc3Cl)c3ccccc3Cl)CC2)cc1F` [Example 361, 4-((1-(bis(2-chlorophenyl)methyl)piperidin-4-yl)methoxy)-5-cyclopropyl-2-fluoro-N-(methylsulfonyl)benzamide, trifluoroacetic acid salt] is 2 nM; for `O=C(NS(=O)(=O)CCC(F)(F)F)c1cc(C2CC2)c(OCC2CN(C(c3ccccc3)c3ccccc3)C2)cc1F` [Example 63, 4-((1-benzhydrylazetidin-3-yl)methoxy)-5-cyclopropyl-2-fluoro-N-((3,3,3-trifluoropropyl)sulfonyl)benzamide] it is 46 nM.
As for `CS(=O)(=O)NC(=O)c1cc(C2CC2)c(OCC2CCN(Cc3ccc(Br)cc3Cl)CC2)cc1F` [Example 413, 4-((1-(4-bromo-2-chlorobenzyl)piperidin-4-yl)methoxy-5-cyclopropyl-2-fluoro-N-(methylsulfonyl)benzamide, trifluoroacetic acid salt], the IC50 was 6 nM.
As to `COc1cccc(CN2CCC(C)(COc3cc(F)c(C(=O)NS(C)(=O)=O)cc3C3CC3)CC2)n1` [Example 576], the IC50 came out at 270 nM.
On the same count and under the same terms, the figure for `COc1ccc(CN2CCC(COc3cc(F)c(C(=O)NS(C)(=O)=O)cc3C3CC3)CC2)cc1F` [Example 94, 5-Cyclopropyl-2-fluoro-4-((1-(3-fluoro-4-methoxybenzyl)piperidin-4-yl)methoxy)-N-(methylsulfonyl)benzamide] is 150 nM; for `CS(=O)(=O)NC(=O)c1cc(C2CC2)c(OCC2CN([C@H](c3ccccc3)c3ccc(S(C)(=O)=O)cc3)C2)cc1F` [Example 96, (R)-5-Cyclopropyl-2-fluoro-N-(methylsulfonyl)-4-((1-((4-(methylsulfonyl)phenyl)(phenyl)methyl)azetidin-3-yl)methoxy)benzamide] it is 429 nM; for `C[C@@H]1CC[C@@H](Oc2cc(F)c(C(=O)NS(=O)(=O)C3CC3)cc2C2CC2)CN1Cc1ccc(F)cc1Cl` [Example 323, 4-(((3R,6R)-1-(2-chloro-4-fluorobenzyl)-6-methylpiperidin-3-yl)oxy)-5-cyclopropyl-N-(cyclopropylsulfonyl)-2-fluorobenzamide] it is 1.9 nM.
Consider `COCCS(=O)(=O)NC(=O)c1cc(C2CC2)c(OCC2CN(C(c3ccccc3)c3ccccc3)C2)cc1F` [Example 61, 4-((1-benzhydrylazetidin-3-yl)methoxy)-5-cyclopropyl-2-fluoro-N-((2-methoxyethyl)sulfonyl)benzamide], for which the IC50 worked out at 57 nM.

Still in this assay, the particulars now being: read-out: Ligand Binding Assay; 100 pM [3H]compound, membranes with hNav1.7 and β1 subunit, 18 h, room temperature; trifluoroacetic acid salt.
Turning to `O=C(NS(=O)(=O)C1CC1)c1cc(C2CC2)c(CN2CCC(Oc3ccc(F)cc3Cl)CC2)cc1F` [Example 506, trifluoroacetic acid salt], the IC50 is 14.3 nM.

The values above are taken from patent US9546164B2 (GENENTECH, INC., priority 2013, dated 2017).
